Holding throughout (assay type): in vitro ADME
A short description of series [1]: In vitro plasma stability, dog plasma. As to conditions: male, pH 7.4, 5 μM, 37° C., sampling 0-360 minutes, read-out: T1/2 Dog. In short, it runs like this:
(§1)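 Pooled plasma at pH 7.4 with sodium heparin or citrate anticoagulant; compound at 5 μM, 37° C with shaking, triplicate samples at 0–360 min. Quenched in acetonitrile/1% formic acid with internal standard; LC-MS/MS peak-area ratios without standard curve; T1/2 from percent remaining.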

The nature of series [2]: In vitro plasma stability, human plasma. The note with it: male, pH 7.4, 5 μM, 37° C., sampling 0-360 minutes, read-out: T1/2 Human. A digest of the protocol:
as §1

Series [3] is described as follows: In vitro plasma stability, rat plasma. The note with it: male, pH 7.4, 5 μM, 37° C., sampling 0-360 minutes, read-out: T1/2 Rat. A digest of the protocol: as §1

Consider `Cc1cc(C2=NN(C)C(=O)C2(C)NO)cc(C)c1S(C)(=O)=O` (stereo not drawn) [Compound 79, 4-(Hydroxyamino)-3-(4-methanesulfonyl-3,5-dimethylphenyl)-1,4-dimethyl-4,5-dihydro-1H-pyrazol-5-one], for which the half-life at 5 μM in series [1] is 49 min; in series [2], 49 min; in series [3], 85 min.
As for `CN1N=C(c2ccc(C(=O)N3CCOCC3)cc2)C(C)(NO)C1=O` (stereo not drawn) [Compound 81, 4-(Hydroxyamino)-1,4-dimethyl-3-[4-(morpholine-4-carbonyl)phenyl]-4,5-dihydro-1H-pyrazol-5-one], the half-life at 5 μM in series [1] came out at 84 min; in series [2] it was 76 min; in series [3] it was 148 min.
On the same counts, the results for `CN1N=C(c2ccc(S(C)(=O)=O)c(N3CCOCC3)c2)C(C)(NO)C1=O` (stereo not drawn) [Compound 82, 4-(Hydroxyamino)-3-[4-methanesulfonyl-3-(morpholin-4-yl)phenyl]-1,4-dimethyl-4,5-dihydro-1H-pyrazol-5-one] are 56 min, 46 min and 69 min.
On the same counts, the results for `COCCN(C)c1cc(C2=NN(C)C(=O)C2(C)NO)ccc1S(C)(=O)=O` (stereo not drawn) [Compound 83, 4-(Hydroxyamino)-3-{4-methanesulfonyl-3-[(2-methoxyethyl)(methyl)amino]phenyl}-1,4-dimethyl-4,5-dihydro-1H-pyrazol-5-one] are 66 min, 51 min and 89 min.
The like results for `CN1N=C(c2ccc(C(=O)N3CCC(F)(F)CC3)cc2)C(C)(NO)C1=O` (stereo not drawn) [Compound 85, 3-[4-(4,4-Difluoropiperidine-1-carbonyl)phenyl]-4-(hydroxyamino)-1,4-dimethyl-4,5-dihydro-1H-pyrazol-5-one] were, in that order, 86 min, 105 min and 125 min.
As to `CCS(=O)(=O)c1ccc(C2=NN(C)C(=O)C2(C)NO)cc1` (stereo not drawn) [Compound 86, 3-[4-(Ethanesulfonyl)phenyl]-4-(hydroxyamino)-1,4-dimethyl-4,5-dihydro-1H-pyrazol-5-one], the half-life at 5 μM turned out to be 39 min in series [1], 47 min in series [2] and 61 min in series [3].
On the same counts, the results for `CN1N=C(c2ccc(S(C)(=O)=O)c(N(C)C)c2)C(C)(NO)C1=O` (stereo not drawn) [Compound 87, 3-[3-(Dimethylamino)-4-methanesulfonylphenyl]-4-(hydroxyamino)-1,4-dimethyl-4,5-dihydro-1H-pyrazol-5-one] are 42 min, 47 min and 63 min.
The like results for `CN1CCN(c2cc(C3=NN(C)C(=O)C3(C)NO)ccc2S(C)(=O)=O)CC1` (stereo not drawn) [Compound 88, 4-(Hydroxyamino)-3-[4-methanesulfonyl-3-(4-methylpiperazin-1-yl)phenyl]-1,4-dimethyl-4,5-dihydro-1H-pyrazol-5-one] were, in that order, 42 min, 49 min and 65 min.
On the same counts, the results for `CN1N=C(c2ccc(S(=O)(=O)c3ccccc3)cc2)C(C)(NO)C1=O` (stereo not drawn) [Compound 89, 3-[4-(Benzenesulfonyl)phenyl]-4-(hydroxyamino)-1,4-dimethyl-4,5-dihydro-1H-pyrazol-5-one] are 29 min, 57 min and 36 min.
Regarding `COCCN(C)S(=O)(=O)c1ccc(C2=NN(C)C(=O)C2(C)NO)cc1` (stereo not drawn) [Compound 90, 4-[4-(Hydroxyamino)-1,4-dimethyl-5-oxo-4,5-dihydro-1H-pyrazol-3-yl]-N-(2-methoxyethyl)-N-methylbenzene-1-sulfonamide], the results for the half-life at 5 μM in series [1], in series [2] and in series [3] were 37 min, 49 min and 72 min, respectively.
On the same counts, the results for `CN1N=C(c2ccc(C(N)=O)cc2)C(C)(NO)C1=O` (stereo not drawn) [Compound 92, 4-[4-(Hydroxyamino)-1,4-dimethyl-5-oxo-4,5-dihydro-1H-pyrazol-3-yl]benzamide] are 166 min, 169 min and 270 min.
The like results for `CN1N=C(c2ccc(S(C)(=O)=O)c(N3CCNCC3)c2)C(C)(NO)C1=O` (stereo not drawn) [Compound 93, 4-(Hydroxyamino)-3-[4-methanesulfonyl-3-(piperazin-1-yl)phenyl]-1,4-dimethyl-4,5-dihydro-1H-pyrazol-5-one] were, in that order, 32 min, 35 min and 66 min.
On the same counts, the results for `C[C@H](NC(=O)c1ccc(C2=NN(C)C(=O)C2(C)NO)cc1)C(=O)O` (stereo partly drawn) [Compound 94] are 114 min, 103 min and 191 min.
With `CN1N=C(c2ccc(S(C)(=O)=O)c(C(F)(F)F)c2)C(C)(NO)C1=O` (stereo not drawn) [Compound 97, 4-(Hydroxyamino)-3-[4-methanesulfonyl-3-(trifluoromethyl)phenyl]-1,4-dimethyl-4,5-dihydro-1H-pyrazol-5-one], the half-life at 5 μM in series [1] stood at 32 min; in series [2], 25 min; in series [3], 23 min.
The like results for `CC1=NN(C)C(=O)C1(NO)c1cccc(C)c1` (stereo not drawn) [Compound 98, 4-(Hydroxyamino)-1,3-dimethyl-4-(3-methylphenyl)-4,5-dihydro-1H-pyrazol-5-one] were, in that order, 16 min, 12 min and 11 min.
In the case of `CN1N=C(c2ccc(S(C)(=O)=O)c(S(C)(=O)=O)c2)C(C)(NO)C1=O` (stereo not drawn) [Compound 104, 3-(3,4-Dimethanesulfonylphenyl)-4-(hydroxyamino)-1,4-dimethyl-4,5-dihydro-1H-pyrazol-5-one], the half-life at 5 μM in series [1] worked out at 33 min; in series [2] it was 28 min; in series [3] it was 59 min.
In the case of `CC1=NN(C)C(=O)C1(NO)/C(C)=N/OCC(C)C` (stereo not drawn) [Compound 105, 4-(Hydroxyamino)-1,3-dimethyl-4-[1-[(2-methylpropoxy)imino]ethyl]-4,5-dihydro-1H-pyrazol-5-one], the half-life at 5 μM in series [1] amounted to 4 min; in series [2], 6 min; in series [3] it was 4 min.
For `CCO/N=C(\C)C1(NO)C(=O)N(C)N=C1C` (stereo not drawn) [Compound 106, 4-[1-(Ethoxyimino)ethyl]-4-(hydroxyamino)-1,3-dimethyl-4,5-dihydro-1H-pyrazol-5-one], the half-life at 5 μM stood at 8 min in series [1], 6 min in series [2] and 7 min in series [3].
The like results for `CO/N=C(\C)C1(NO)C(=O)N(C)N=C1c1ccc(OC)cc1` (stereo not drawn) [Compound 107, 4-(Hydroxyamino)-4-[1-(methoxyimino)ethyl]-3-(4-methoxyphenyl)-1-methyl-4,5-dihydro-1H-pyrazol-5-one] were, in that order, 10 min, 18 min and 49 min.
Turning to `CN1N=C(c2ccc(Br)cc2)C(C)(NO)C1=O` (stereo not drawn) [Compound 108, 3-(4-Bromophenyl)-4-(hydroxyamino)-1,4-dimethyl-4,5-dihydro-1H-pyrazol-5-one], the half-life at 5 μM was 136 min in series [1], 61 min in series [2] and 89 min in series [3].
